{"source": "paper PMC10138721", "about": "“Investigation of the Compatibility between Warheads and Peptidomimetic Sequences of Protease Inhibitors—A Comprehensive Reactivity and Selectivity Study” (International Journal of Molecular Sciences, 2023)", "key": {"[1]": {"test": "Reactivity test of warhead probes with PhEtSH without base (NMR/LC-MS)", "assay_type": "physicochemical", "conditions": "non-basic conditions; for reactivity with PhEtSH (protonated thiol), in words: DMSO-d6, up to 240 min", "description": "(§1) To investigate the reactivity between the different warheads towards the three classes of proteases (serine, threonine and cysteine proteases), their behavior in model systems under the same reaction conditions (solvent, nucleophile and base) using either NMR or LC-MS analysis was investigated. We used reactivity probes with a Boc-L-Leu-(warhead) sequence. Leucin was chosen as a P1 amino acid to minimize influences of the side chain and due to synthetic accessibility. 2-Phenylethanethiol was used as a model nucleophile to mimic the thiol moiety of cysteine proteases, and sodium ethoxide was used as a serine/threonine replacement. DMSO-d6 was used as solvent. Under these conditions, the nucleophile is deprotonated, simulating the activated serine or threonine in the catalytic triad of serine and threonine proteases, while ethanol as protonated alcohol species turned out to be unreactive in preliminary test reactions. The reactivity tests using 2-phenylethanthiol were carried out in the presence and absence of triethylamine as a base. This allowed for a reactivity comparison of the warheads towards protonated and deprotonated nucleophilic thiol species. Generating a deprotonated thiol species in the presence of triethylamine simulates the deprotonated cysteine in the catalytic dyad of cysteine proteases. Scheme 8 illustrates the reaction of the reactivity assay with both model nucleophiles and the vinyl sulfone moiety 109 as an example.\n(§2) The reactivity tests of all Michael acceptors, 109, 110, 111 and 112, the α-ketobenzothiazole 115 and nitrile 117 were investigated using an NMR-based analysis method, while the β-lactam 108 reactivity was investigated via LC-MS, due to its lack of proton signals, which could be used for evaluation of the reactivity in the ^1H-NMR studies, and the irreversible reaction mechanism, which allowed the LC-MS analysis. […] Formation of the expected adducts with the nitrile 117 (PhEtSH/PhEtS^–/EtONa), the α-ketobenzothiazole 115 (PhEtSH/PhEtS^–) and the nitroalkene 111 (EtONa) could not be observed. This may have been due to the covalent reversible reaction mechanism of the nitrile and α-ketobenzothiazole and the overall difficult ionization of the specific compounds by an electron spray ionization mass spectrometer.\n(§3) Method A (NMR): ^1H-NMR spectra were recorded for the respective warhead and nucleophile mixture, before the addition of the nucleophile (0 min) and after 5, 30, 60, 120 and 240 min reaction time. For quantification, the double bond-signals (doublet/doublet of doublets, around 7.4–6.7 ppm) of the Michael acceptors were integrated relative to 1,3-dioxolane as an internal standard. The acetal CH2 signal of the internal standard at 5.3 ppm was used as a reference.\n(§4) The α-ketobenzothiazole 115 and nitrile 117 were similarly analyzed by ^13C-NMR. Therefore, the corresponding ^13C-leucin derivates were synthesized (Scheme 7). Quantifications of the reactions were carried out by using the integral of the carbonyl carbon atom signal at 195 ppm for the α-ketobenzothiazole and 120 ppm for the nitrile moiety. The reference signal of DMSO-d6 was set to 39.52 ppm.\n(§5) Method B (LC-MS): The reactivity of the β-lactam test compound 108 with the nucleophiles was investigated using an LC-MS-based method. To quantify the conversion, the AUCs were determined at 254 nm. In Figure 3, the UV spectra of the test reaction of the β-lactam 108 with EtONa are shown exemplarily.\n(§6) The β-lactam 108 (0.07 mmol, 1eq) was solved in DMSO-d6 (0.5 mL). The reaction was measured in time intervals before (0 min), 5, 30, 60, 120 and 240 mins after the addition of the corresponding nucleophile (PhEtSH/EtONa, 2 eq) in presence of Et3N (2 eq) or not. In case of PhEtSH as the nucleophile the reaction got quenched by pouring 10 µL of the reaction mixture into a solution of 25 mM TRIS (pH 7.00) and 27 mM maleimide in a 1:1 mixture of acetonitrile/H2O (990 µL). For the reaction with EtONa as the nucleophile, the reaction solution […]"}, "[2]": {"test": "Reactivity test of warhead probes with PhEtSH + Et3N (NMR/LC-MS)", "assay_type": "physicochemical", "conditions": "for reactivity with PhEtSH + Et3N (deprotonated thiol), in words: DMSO-d6, up to 240 min", "description": "as §1, §2, §3, §4, §5, §6"}, "[3]": {"test": "Reactivity test of warhead probes with EtONa (NMR/LC-MS)", "assay_type": "physicochemical", "description": "as §1, §2, §3, §4, §5, §6"}, "[4]": {"molecular_target": "T1, human cathepsin S (CatS) (Homo sapiens, UniProt P25774)", "T1 construct": "purchased Sigma Aldrich", "T1 sequence (P25774 115-331)": "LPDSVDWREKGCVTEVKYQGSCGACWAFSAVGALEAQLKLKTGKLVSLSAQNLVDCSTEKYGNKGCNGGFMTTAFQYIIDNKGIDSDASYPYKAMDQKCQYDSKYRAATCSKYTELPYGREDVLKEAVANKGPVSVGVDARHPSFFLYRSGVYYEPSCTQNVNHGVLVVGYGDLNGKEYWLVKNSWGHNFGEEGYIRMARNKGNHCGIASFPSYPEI", "test": "Fluorometric inhibition assay, cathepsin S", "assay_type": "biochemical", "conditions": "for kinact: read-out: kinact, CatS"}, "[5]": {"molecular_target": "rhodesain (Trypanosoma brucei rhodesiense, UniProt Q95PM0)", "sequence (Q95PM0 entry or part of it)": "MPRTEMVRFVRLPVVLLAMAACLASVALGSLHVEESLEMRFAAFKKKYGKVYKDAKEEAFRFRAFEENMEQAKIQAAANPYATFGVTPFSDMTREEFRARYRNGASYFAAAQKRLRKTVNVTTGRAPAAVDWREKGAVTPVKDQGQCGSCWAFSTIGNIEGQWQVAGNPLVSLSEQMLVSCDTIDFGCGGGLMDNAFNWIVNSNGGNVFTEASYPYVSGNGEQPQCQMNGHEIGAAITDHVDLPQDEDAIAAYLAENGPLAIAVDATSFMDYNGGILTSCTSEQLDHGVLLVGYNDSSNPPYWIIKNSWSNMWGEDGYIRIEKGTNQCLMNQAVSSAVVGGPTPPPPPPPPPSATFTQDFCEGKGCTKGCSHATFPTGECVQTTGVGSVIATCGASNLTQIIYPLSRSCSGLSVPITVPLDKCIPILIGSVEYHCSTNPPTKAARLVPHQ", "test": "Fluorometric inhibition assay, rhodesain", "assay_type": "biochemical", "conditions": "for kinact: read-out: kinact, Rhodesain"}, "[6]": {"molecular_target": "SARS-CoV-2 main protease (M^pro) (Severe acute respiratory syndrome coronavirus 2, UniProt P0DTD1)", "test": "Fluorometric (FRET) inhibition assay, SARS-CoV-2 M^pro", "assay_type": "biochemical", "conditions": "for activity against M^pro, in words: initial screen at 20 µM, cut-off 80% inhibition"}}, "note": "Entries after “also recorded” stand apart in the source; their conditions may differ. Like-named read-outs stand apart in the source and are kept apart here."}
{"smiles": "CC(C)CC(/C=C/S(=O)(=O)c1ccccc1)NC(=O)OC(C)(C)C", "note": "(stereo not drawn) [compound 109]", "values": [{"measurement": "reactivity with PhEtSH (protonated thiol), in words", "setting": "[1]", "result": "conversion was not observed; also recorded: missing reactivity"}, {"measurement": "time to full conversion with PhEtSH + Et3N", "setting": "[2]; DMSO-d6", "result": 60, "unit": "min"}, {"measurement": "reactivity with PhEtSH + Et3N (deprotonated thiol), in words", "setting": "[2]", "result": "high reactivity"}, {"measurement": "conversion with EtONa", "setting": "[3]; DMSO-d6, after 240 min", "result": 70, "unit": "%"}]}
{"smiles": "N#C[C@H](CCc1ccccc1)NC(=O)[C@H](Cc1ccccc1)NC(=O)OCc1ccccc1", "note": "[compound 25]", "values": [{"measurement": "Ki", "setting": "[4]; Ki, CatS", "result": "136 ± 12", "unit": "nM"}, {"measurement": "Ki", "setting": "[5]; Ki, Rhodesain", "result": "88 ± 17.4", "unit": "nM"}]}
{"smiles": "O=C(NC(C=C[N+](=O)[O-])COCc1ccccc1)C(CC1CCCCC1)NC(=O)N1CCOCC1", "note": "(stereo not drawn) [compound 49]", "values": [{"measurement": "Ki", "setting": "[4]; Ki, CatS", "result": "12 ± 1", "unit": "nM"}, {"measurement": "Ki", "setting": "[5]; pKi, Rhodesain inhibition", "result": 2, "unit": "nM"}]}
{"smiles": "O=C(N[C@@H](Cc1ccccc1)C(=O)N[C@H](/C=C/S(=O)(=O)c1ccccc1)CCc1ccccc1)OCc1ccccc1", "note": "[compound 16]", "values": [{"measurement": "Ki", "setting": "[4]; pKi, Cathepsin S inhibition", "result": 1, "unit": "nM"}, {"measurement": "kinact", "setting": "[4]", "result": "0.0037 ± 0.0006", "unit": "s⁻¹"}, {"measurement": "Ki", "setting": "[5]; Ki, Rhodesain", "result": "20 ± 2", "unit": "nM"}, {"measurement": "Ki", "setting": "[5]; pKi, Rhodesain inhibition", "result": 20, "unit": "nM"}, {"measurement": "kinact", "setting": "[5]", "result": "0.005 ± 0.0001", "unit": "s⁻¹"}]}
{"smiles": "CC(C)C[C@@H]([13C]#N)NC(=O)OC(C)(C)C", "note": "[compound 117]", "values": [{"measurement": "conversion with PhEtSH", "setting": "[1]; DMSO-d6, time not stated", "result": 7, "unit": "%"}, {"measurement": "reactivity with PhEtSH (protonated thiol), in words", "setting": "[1]", "result": "did indeed react"}, {"measurement": "reactivity with PhEtSH + Et3N (deprotonated thiol), in words", "setting": "[2]", "result": "Every warhead except the β-lactam 108 and the nitrile 117 reacted; also recorded: no reaction"}, {"measurement": "conversion with EtONa", "setting": "[3]; DMSO-d6, at 5 min", "result": 10, "unit": "%"}]}
{"smiles": "COc1cccc2[nH]c(C(=O)N[C@@H](CC(C)C)C(=O)N[C@@H](C[C@@H]3CCNC3=O)C(=O)c3nc4ccccc4s3)cc12", "note": "[compound 90]", "values": [{"measurement": "activity against M^pro, in words", "setting": "[6]", "result": "displayed inhibitory activity"}]}
{"smiles": "O=C(N[C@@H](Cc1ccccc1)C(=O)N[C@H](/C=C(\\F)S(=O)(=O)c1ccccc1)CCc1ccccc1)OCc1ccccc1", "note": "[compound 17]", "values": [{"measurement": "Ki", "setting": "[4]; Ki, CatS", "result": "966 ± 104", "unit": "nM"}, {"measurement": "Ki", "setting": "[4]; pKi, Cathepsin S inhibition", "result": 1000, "unit": "nM"}, {"measurement": "Ki", "setting": "[5]; Ki, Rhodesain", "result": "3570 ± 437", "unit": "nM"}]}
{"smiles": "CC(C)CC(/C=C/[N+](=O)[O-])NC(=O)OC(C)(C)C", "note": "(stereo not drawn) [compound 111]", "values": [{"measurement": "reactivity with PhEtSH (protonated thiol), in words", "setting": "[1]", "result": "conversion was not observed"}, {"measurement": "maximum conversion with PhEtSH + Et3N", "setting": "[2]; DMSO-d6, after 240 min", "result": 82, "unit": "%"}, {"measurement": "reactivity with PhEtSH + Et3N (deprotonated thiol), in words", "setting": "[2]", "result": "high reactivity"}, {"measurement": "conversion with EtONa", "setting": "[3]; DMSO-d6, after 240 min", "result": 84, "unit": "%"}]}
{"smiles": "O=C(N[C@@H](Cc1ccccc1)C(=O)N[C@H](/C=C/[N+](=O)[O-])CCc1ccccc1)OCc1ccccc1", "note": "[compound 13]", "values": [{"measurement": "Ki", "setting": "[4]; Ki, CatS", "result": "201 ± 93", "unit": "nM"}, {"measurement": "Ki", "setting": "[5]; Ki, Rhodesain", "result": "0.06 ± 0.006", "unit": "nM"}]}
{"smiles": "O=C(N[C@@H](Cc1ccccc1)C(=O)N[C@@H](CCc1ccccc1)C(=O)c1nc2ccccc2s1)OCc1ccccc1", "note": "[compound 18]", "values": [{"measurement": "activity against rhodesain, in words", "setting": "[5]", "result": "inactive at 20 µM"}]}
{"smiles": "CCOC(=O)/C=C/C(=O)[C@H](CCc1ccccc1)NC(=O)[C@H](Cc1ccccc1)NC(=O)OCc1ccccc1", "note": "[compound 22]", "values": [{"measurement": "Ki", "setting": "[4]; Ki, CatS", "result": "18 ± 3", "unit": "nM"}, {"measurement": "kinact", "setting": "[4]", "result": "0.0022 ± 0.0001", "unit": "s⁻¹"}, {"measurement": "Ki", "setting": "[5]; Ki, Rhodesain", "result": "79 ± 7", "unit": "nM"}, {"measurement": "kinact", "setting": "[5]", "result": "0.008 ± 0.001", "unit": "s⁻¹"}]}
{"smiles": "COc1cccc2[nH]c(C(=O)N[C@@H](CC(C)C)C(=O)N[C@H](/C=C(\\F)S(=O)(=O)c3ccccc3)C[C@@H]3CCNC3=O)cc12", "note": "[compound 94]", "values": [{"measurement": "Ki", "setting": "[6]", "result": "517 ± 33", "unit": "nM"}, {"measurement": "activity against M^pro, in words", "setting": "[6]", "result": "displayed inhibitory activity"}, {"measurement": "Ki", "setting": "[4]; Table S1; a) calculated from IC50 with Cheng–Prusoff, irreversible inhibitors from kobs fits, n.a. = not active at 20 µM, * unstable towards DTT, read-out: Ki, CatS", "result": "1350 ± 90", "unit": "nM"}, {"measurement": "Ki", "setting": "[5]; Table S1; a) calculated from IC50 with Cheng–Prusoff, irreversible inhibitors from kobs fits, n.a. = not active at 20 µM, read-out: Ki, Rhodesain", "result": "217 ± 31", "unit": "nM"}]}
{"smiles": "CC(C)C[C@H](NC(=O)OC(C)(C)C)[13C](N)=O", "note": "[compound 116]", "values": [{"measurement": "time until equilibrium was reached with PhEtSH", "setting": "[1]; DMSO-d6", "result": 5, "unit": "min"}]}
{"smiles": "CC(=O)NCC(=O)NC(C(=O)N[C@@H](C)C(=O)N[C@H](/C=C(\\F)S(=O)(=O)c1ccccc1)CCCNC(=N)N)[C@H](C)O", "note": "(stereo partly drawn) [compound 107]", "values": [{"measurement": "activity against CatS, in words", "setting": "[4]", "result": "not active at 20 µM"}, {"measurement": "activity against rhodesain, in words", "setting": "[5]", "result": "inactive"}]}
